This note sets out measurements from US10004716B2, “Therapeutic/ preventive agent containing coumarin derivative as active ingredient” (NIPPON ZOKI PHARMACEUTICAL CO., LTD., priority 2014, dated 2018).

Assay [1] relates to CTGF gene expression. In words: Evaluation II: TGF-β-induced gene expression of fibrosis-related factors in NHLF cells: CTGF. It counts as cell-based, human. The following applies: 30 μM test substance, 200 μg/mL pirfenidone, 30 μM DEX, 1.0 μM TPCA-1 or 10 μM FP 2 hours, then TGF-β 0.5 ng/mL 4 hours, n = 4. As for the experimental part: (§1) NHLF cells were sown so as to make their amount 5×10^4 cells/well to each well of a 12-well plate and incubated to an extent of 80% confluent in a medium where fibroblast growth medium 2 supplement mix (FGM-2 SingleQuots, Lonza) was added to a fibroblast basal medium (FBM, Lonza). After that, incubation was conducted for 2 hours in a DMEM medium containing 30 μM of a test substance, 200 μg/mL of pirfenidone, 30 μM of dexamethasone (DEX), 1.0 μM of TPCA-1 or 10 μM of fluticasone propionate (FP) and, after TGF-β was added thereto so as to make its final concentration 0.5 ng/mL, incubation was carried out for 4 hours more.
(§2) With regard to the extraction of RNA from NHLF cells, the synthesis of cDNA from RNA and the action of the test substance to gene expression of fibrosis-related factors [CFGF, TGF-β1, fibronectin and Col 1], the tests were carried out in the same manners as in (2) and (3) of the above Test Example 3.

In assay [2] the test system is TGF-β1 gene expression. In words: Evaluation II: TGF-β-induced gene expression of fibrosis-related factors in NHLF cells: TGF-β1. It counts as cell-based, human. As to conditions: 30 μM test substance, 200 μg/mL pirfenidone, 30 μM DEX, 1.0 μM TPCA-1 or 10 μM FP 2 hours, then TGF-β 0.5 ng/mL 4 hours, n = 4. How it is done:
as §1, §2

Assay [3] deals with mice where pulmonary fibrosis was induced by bleomycin. In words: Lung wet weight increase of mice where pulmonary fibrosis was induced by bleomycin. It counts as in vivo. The following applies: ICR male mice, bleomycin 2 mg/kg i.v. 5 days; test substance 50 mg/kg or pirfenidone 200 mg/kg per os twice daily for 2 weeks; normal control 205, diseased control 303. As for the experimental part:
Bleomycin (2 mg/kg) was repeatedly injected intravenously for 5 days to ICR male mice. The mice were organized into 4 groups of normal control group, diseased control group, test substance-administered group and pirfenidone-administered group.
A test substance was suspended in 0.5 w/v % carboxymethyl cellulose sodium (CMC) and 50 mg/kg thereof was repeatedly administered per os with stirring twice daily for 2 weeks using an oral sonde for rats. Pirfenidone was suspended in 0.5 w/v % CMC and 200 mg/kg thereof was repeatedly administered per os with stirring twice daily for 2 weeks using an oral sonde for rats. To the normal control group and the diseased control group, 0.5 w/v % CMC was repeatedly administered per os according to the same administration schedule. After finishing the administration period, both lungs were excised from the mice and their wet weight was measured.

Assay [4] relates to fibronectin gene expression. In words: Evaluation II: TGF-β-induced gene expression of fibrosis-related factors in NHLF cells: fibronectin. As to conditions: 30 μM test substance, 200 μg/mL pirfenidone, 30 μM DEX, 1.0 μM TPCA-1 or 10 μM FP 2 hours, then TGF-β 0.5 ng/mL 4 hours, n = 4. It counts as cell-based, human. As for the experimental part: as §1, §2
For assay [5], the system named is Col 1 gene expression. In words: Evaluation II: TGF-β-induced gene expression of fibrosis-related factors in NHLF cells: Col 1. It is filed as cell-based, human. As to conditions: 30 μM test substance, 200 μg/mL pirfenidone, 30 μM DEX, 1.0 μM TPCA-1 or 10 μM FP 2 hours, then TGF-β 0.5 ng/mL 4 hours, n = 4. As for the experimental part: as §1, §2
Assay [6] has as its system NF-κB. In words: Suppressive action to NF-κB activation (luciferase reporter, HEK293T cells, TNF-α). As to conditions: HEK293T cells with NF-κB reporter; test substance 25 μml/mL 1 hour, then TNF-α 10 ng/mL 5 hours; stimulated TNF-α = 100. It is filed as cell-based, human. As for the experimental part:
A preparation solution containing pGL4.32 [luc2P/NF-κB-RE/Hygrol] (Promega) which is an NF-κB reporter vector, pGL4.74 [hRluc/TK] (Promega) which is a control vector and Lipofectamine LTX (Life Technologies) which is a gene transfer agent was added to human embryo kidney cells (HEK293T cells) sown onto a […] whereupon there were prepared the cells which transiently express a reporter protein.
After 24 hours from the gene transfer, transient expression cells were peeled off by treating with trypsin, sown on a poly-lysine coated white 96-well plate and incubated for one night. The test substance was added to as to make its final concentration 25 μml/mL and, after pre-incubating for 1 hour, TNF-α was added thereto so as to make its final concentration 10 ng/mL followed by incubating for 5 hours more. The cells were dissolved and the activities of a firefly luciferase and a renilla luciferase were measured. Rate of the luminescent intensity by addition of each drug to the luminescent intensity by stimulation with TNF-α were calculated.
For orientation: A reporter such as luciferase makes a cellular process visible.

Take `Cc1ccc(=O)n(-c2ccccc2)c1` [Pirfenidone]: the “Copy Numbers per 10000 Copies of GAPDH CTGF” value in assay [1] is given as 180.6 copies per 10000 copies of GAP. For the same molecule, the “Copy Numbers per 10000 Copies of GAPDH TGF-β1” value in assay [2] is given as 962.5 copies per 10000 copies of GAP. In assay [3], this molecule gave a Wet Lung Weight of 242 mg. Moreover, in assay [4], the “Copy Numbers per 10000 Copies of GAPDH Fibronectin” value is reported as 1689.7 copies per 10000 copies of GAP. Further, in assay [5], the “Copy Numbers per 10000 Copies of GAPDH Col 1” value is on record as 1027.6 copies per 10000 copies of GAP.

`CCC(=O)O[C@]1(C(=O)SCF)[C@H](C)C[C@H]2[C@@H]3C[C@H](F)C4=CC(=O)C=C[C@]4(C)[C@@]3(F)[C@@H](O)C[C@@]21C` [FP, fluticasone propionate]: the “Copy Numbers per 10000 Copies of GAPDH CTGF” value in assay [1] is 1166.8 copies per 10000 copies of GAP. Further, in assay [2], the “Copy Numbers per 10000 Copies of GAPDH TGF-β1” value was 450.6 copies per 10000 copies of GAP. In addition, the “Copy Numbers per 10000 Copies of GAPDH Fibronectin” value in assay [4] is on record as 3603.2 copies per 10000 copies of GAP. In addition, the “Copy Numbers per 10000 Copies of GAPDH Col 1” value in assay [5] is 593.3 copies per 10000 copies of GAP.

Consider `NC(=O)Nc1sc(-c2ccc(F)cc2)cc1C(N)=O` [TPCA-1], for which the “Copy Numbers per 10000 Copies of GAPDH CTGF” value in assay [1] is reported as 461.2 copies per 10000 copies of GAP. Moreover, the “Copy Numbers per 10000 Copies of GAPDH TGF-β1” value in assay [2] is 886.9 copies per 10000 copies of GAP. The “Copy Numbers per 10000 Copies of GAPDH Fibronectin” value in assay [4] was 3757.9 copies per 10000 copies of GAP. In assay [5], the “Copy Numbers per 10000 Copies of GAPDH Col 1” value is listed as 840.4 copies per 10000 copies of GAP.

Consider `C[C@@H]1C[C@H]2[C@@H]3CCC4=CC(=O)C=C[C@]4(C)[C@@]3(F)[C@@H](O)C[C@]2(C)[C@@]1(O)C(=O)CO` [DEX, dexamethasone], for which the “Copy Numbers per 10000 Copies of GAPDH CTGF” value in assay [1] is 1010.1 copies per 10000 copies of GAP. For the same molecule, the “Copy Numbers per 10000 Copies of GAPDH TGF-β1” value in assay [2] is recorded as 546.9 copies per 10000 copies of GAP. Besides, in assay [4], the “Copy Numbers per 10000 Copies of GAPDH Fibronectin” value is on record as 4314.6 copies per 10000 copies of GAP. Moreover, in assay [5], the “Copy Numbers per 10000 Copies of GAPDH Col 1” value is recorded as 610.7 copies per 10000 copies of GAP.

On to `O=c1oc2c(OS(=O)(=O)c3cccc([N+](=O)[O-])c3)cccc2cc1NS(=O)(=O)c1cccc([N+](=O)[O-])c1` [Compound 17, 3-[(3-Nitrophenyl)sulfonylamino]-2-oxochromen-8-yl 3-nitrobenzenesulfonate], for which, in assay [6], the “Luminescent Intensity to Stimulated TNF-α (%)” value is recorded as 0.1%.
